Assay results as given in PMC6290463 (The FEBS journal, 2012).
Non-standard residues stand in square brackets, D forms with d. Residues, ends and D or L forms follow the SMILES beside them. *: point of attachment. Sta = CC(C)C[C@H](N)[C@@H](O)CC(=O)O; Isovaleryl = CC(C)CC(=O)*

How the values were obtained:
XMRV PR [1] = target: T1, XMRV PR (Xenotropic MuLV-related virus VP62, UniProt A1Z651); test: HPLC-based cleavage assay with peptide RSLLY-PALTP; format: biochemical; conditions: read-out: XMRV PR Ki; cited from earlier work
T1 sequence (A1Z651 533-657): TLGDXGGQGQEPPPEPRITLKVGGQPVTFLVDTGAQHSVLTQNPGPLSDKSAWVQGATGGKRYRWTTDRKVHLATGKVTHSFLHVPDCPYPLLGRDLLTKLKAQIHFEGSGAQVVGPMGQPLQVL

XMRV PR [2] = target: T1, XMRV PR; conditions: PDB 3SM1; cited from earlier work
XMRV PR [3] = target: T1, XMRV PR; conditions: previous study; cited from earlier work
HIV-1 PR = HIV-1 PR (Human immunodeficiency virus type 1 group M subtype B, UniProt P04585, C555A/C583A/L521I/L551I/Q495K); test: Urea dissociation of HIV-1 PR; format: physicochemical; conditions: half-maximal velocity; urea 0–4.0 M, 5.5 nM HIV-1 PR, 0.3 mM substrate, HPLC

Molecule: CC(C)CC(=O)N[C@H](C(=O)N[C@H](C(=O)N[C@@H](CC(C)C)[C@@H](O)CC(=O)N[C@@H](C)C(=O)N[C@@H](CC(C)C)[C@@H](O)CC(=O)O)C(C)C)C(C)C [Pepstatin A, pepstatin A (isovaleryl-Val-Val-Sta-Ala-Sta)] (Isovaleryl-VV[Sta]A[Sta]-OH)
- Ki (XMRV PR [1]): 1440 nM

Molecule: CC(C)CC(=O)N[C@H](C(=O)N[C@H](C(=O)N[C@@H](CC(C)C)[C@@H](O)CC(=O)N[C@@H](C)C(=O)N[C@@H](CC(C)C)[C@@H](O)CC(=O)O)C(C)C)C(C)C [Pepstatin A, pepstatin A] (Isovaleryl-VV[Sta]A[Sta]-OH)
- binding mode to XMRV PR (crystal structure) (XMRV PR [2]): two inhibitor molecules binding to the enzyme, leaving the catalytic water in place
- Inhibition of XMRV PR (in words) (XMRV PR [3]): only a very weak inhibitor of XMRV PR

Molecule: HIV-1 PR: Purified HIV-1 PR, containing stabilizing mutations (Q7K, L33I, L63I, C67A and C95A)
- Urea dissociation (UC50) (HIV-1 PR): 1.47 M
